Where a SMILES comes first, the peptide text is derived from it. Bridges are numbered along the chain shown (N, C = ends).
Tests used:
in vivo [1] = settings: rat
in vivo [2] = settings: both, cynomolgus monkey, iv
in vivo [3] = settings: both, cynomolgus monkey; for AUC(0-inf) / AUC / clearance / Cmax / MRT inf / Vd: iv, cynomolgus; for AUC(0-inf): AUC0-∞; for AUC: AUCτ; for clearance: CL; for MRT inf: MRTinf; for Vd: Vss
[4] = Single i.v. bolus PK in a vervet monkey (pilot safety study); assay type: in vivo, vervet/African green monkey (Chlorocebus aethiops sabaeus); settings: single 3 mg/kg i.v. bolus
Procedure: Vervet monkey studies: As a pilot safety study, a single dose of Peptide 1 (SEQ ID NO. 1) at 3 mg/kg was administered to an adult male vervet/African green monkey (Chlorocebus aethiops sabaeus) via i.v. bolus. Serial blood samples were collected at 0.5, 1, 4, 8, 24, 48, 72, 96, 120, and 192 h post-administration.
Bioanalytical analysis: Clarified plasma samples from mice were directly diluted into 5% formic acid/5% acetonitrile. Quantitative analysis of Peptide 1 (SEQ ID NO. 1) was performed by LC-MS/MS with reverse-phase liquid chromatography (XBridge™ BEH phenyl 3.5 μm 3×100 mm column, Waters #186003328) on an Acquity™ H-Class UPLC (Waters) coupled to a Xevo™ TQ-S tandem electrospray mass spectrometry running MassLynx™ V4.1 (Waters). Quantitative mass spectroscopy was performed by multiple-reaction monitoring transition 417.32>517.21, with the area under the curve determined by TargetLynx™ (Waters). A synthetic theta defensin-like peptide was used as an internal standard (IS). The lower limit of quantification (LLOQ) of the assay was 1 ng/mL. Intra- and inter-assay precision (percent coefficient of variation [CV]) was ≤3%, and intra and interassay accuracy (% relative error) was ≤5%. Plasma Peptide 1 (SEQ ID NO. 1) concentration analyses for rats and cynomolgus monkey studies were performed at MicroConstants (San Diego, CA) by HPLC using a Mac-Mod™ Analytical ACE C4 column. The mobile phase was nebulized using heated nitrogen in Z-Spray source/interface set to electrospray positive ionization mode, and the compound was detected using MS/MS (LLOQ=10.0 ng/mL). Details of the method are summarized in the MicroConstants method No. MN20038. Clarified plasma samples from a serially sampled vervet were quantified by ultra-performance liquid chromatography Waters Acquity H-Class UPLC. […] Peptide 1 (SEQ ID NO. 1) peak and mass confirmation was performed on post PDA eluent using a Micromass Quattro Ultima™ mass spectrometer with MassLynx™ 4.1 (Waters). The lower limit of quantitation (LLOQ) ranged from 10-30 ng/mL (determined by sample background) to an upper limit of 50 ug/mL. RTD-2 (10 ug/mL) was used as an internal standard. Intra- and interassay precision (% coefficient of variation [CV]) was ≤3%, and intra and interassay accuracy (% relative error) was ≤5%.
Pharmacokinetic analysis: Non-compartmental analysis (NCA) was performed using Phoenix WinNonlin™ (version 8.3.1, Certara USA, Inc.; Princeton NJ) to determine the PK parameters in mice, rats, cynomolgus monkeys, and the vervet. Nominal sampling times were used in the analysis, and data below the lower limit of quantification of the assay were excluded from the analysis. The maximum plasma concentration (Cmax) was determined from visual inspection of the data. In addition, the following parameters were calculated: terminal elimination rate constant (λz), area under the curve extrapolated to infinity (AUC0-∞), area under the curve to dosing interval (AUCτ), mean residence time (MRT), clearance (CL), and volume of distribution at steady state (Vss). AUC was calculated using the linear up, log down method, and the λz was calculated using up to the last four data points of the log-linear terminal phase of the concentration-time profile. Due to sparsely sampled data in mice and rats, the sparse sampling calculation methodology in Phoenix WinNonlin™ was used, which generated a single estimate without standard error for all parameters, except for Cmax. For rats and cynomolgus monkeys, all parameters were calculated using sampling times relative to the beginning of the i.v. infusion.

[5] = 0.3 mg/kg, 0.3 mg/kg i.v., Day 1, mean
[6] = 1 mg/kg, 1 mg/kg i.v., Day 1, mean
[7] = 3 mg/kg, 3 mg/kg i.v., Day 1, mean
[8] = 5 mg/kg, 5 mg/kg i.v., Day 1, mean
[9] = 5 mg/kg/day, 5 mg/kg/day i.v., Day 10, mean
[10] = 10 mg/kg, 10 mg/kg i.v., Day 1, mean
[11] = 10 mg/kg/day, 10 mg/kg/day i.v., Day 10, mean
[12] = 15 mg/kg, 15 mg/kg i.v., Day 1, mean
[13] = 15 mg/kg/day, 15 mg/kg/day i.v., Day 4, mean
[14] = 15 mg/kg/day, 15 mg/kg/day i.v., Day 7, mean
[15] = 15 mg/kg/day, 15 mg/kg/day i.v., Day 10, mean

CC[C@H](C)[C@@H]1NC(=O)[C@@H]2CSSC[C@H](NC(=O)[C@H](CCCNC(=N)N)NC(=O)[C@@H]3CSSC[C@H](NC1=O)C(=O)N[C@@H]([C@@H](C)O)C(=O)N[C@@H](CCCNC(=N)N)C(=O)NCC(=O)N[C@@H](Cc1ccccc1)C(=O)N3)C(=O)N[C@@H](CC(C)C)C(=O)N[C@H]1CSSC[C@H](NC(=O)[C@H](C(C)C)NC(=O)CNC(=O)[C@H](CCCNC(=N)N)NC(=O)[C@H](CCCNC(=N)N)NC1=O)C(=O)N[C@@H](CCCNC(=N)N)C(=O)N2 [Peptide 1] (cyclo(GFCRCLCRRGVCRCICTR); disulfide 3-16, 5-14, 7-12)
MTD (in vivo [1]): 20 mg/kg
NOAEL at 10 days (in vivo [2]): 15 mg/kg/day
half-life (in vivo [3]): 9.53 h
half-life (in vivo [3]; 15 mg/kg): 47.2 h
AUC(0-inf) (in vivo [3]; [5]): 617 ng·h/mL
AUC (in vivo [3]; [5]): 591 ng·h/mL
clearance (in vivo [3]; [5]): 8.3 mL/min/kg
Cmax (in vivo [3]; [5]): 582 ng/mL
MRT inf (in vivo [3]; [5]): 1.24 h
Vd (in vivo [3]; [5]): 0.626 L/kg
AUC(0-inf) (in vivo [3]; [6]): 3880 ng·h/mL
AUC (in vivo [3]; [6]): 3820 ng·h/mL
clearance (in vivo [3]; [6]): 4.43 mL/min/kg
Cmax (in vivo [3]; [6]): 2560 ng/mL
MRT inf (in vivo [3]; [6]): 1.82 h
Vd (in vivo [3]; [6]): 0.486 L/kg
AUC(0-inf) (in vivo [3]; [7]): 10700 ng·h/mL
AUC (in vivo [3]; [7]): 10300 ng·h/mL
clearance (in vivo [3]; [7]): 4.78 mL/min/kg
Cmax (in vivo [3]; [7]): 4750 ng/mL
MRT inf (in vivo [3]; [7]): 4.3 h
Vd (in vivo [3]; [7]): 1.22 L/kg
AUC(0-inf) (in vivo [3]; [8]): 27200 ng·h/mL
AUC (in vivo [3]; [8]): 27200 ng·h/mL
clearance (in vivo [3]; [8]): 3.13 mL/min/kg
Cmax (in vivo [3]; [8]): 10700 ng/mL
MRT inf (in vivo [3]; [8]): 2.94 h
Vd (in vivo [3]; [8]): 0.55 L/kg
AUC(0-inf) (in vivo [3]; [9]): 40000 ng·h/mL
AUC (in vivo [3]; [9]): 38900 ng·h/mL
clearance (in vivo [3]; [9]): 2.27 mL/min/kg
Cmax (in vivo [3]; [9]): 11700 ng/mL
MRT inf (in vivo [3]; [9]): 4.84 h
Vd (in vivo [3]; [9]): 0.645 L/kg
AUC(0-inf) (in vivo [3]; [10]): 76800 ng·h/mL
AUC (in vivo [3]; [10]): 76100 ng·h/mL
clearance (in vivo [3]; [10]): 2.38 mL/min/kg
Cmax (in vivo [3]; [10]): 26700 ng/mL
MRT inf (in vivo [3]; [10]): 4.4 h
Vd (in vivo [3]; [10]): 0.629 L/kg
AUC(0-inf) (in vivo [3]; [11]): 125000 ng·h/mL
AUC (in vivo [3]; [11]): 118000 ng·h/mL
clearance (in vivo [3]; [11]): 1.48 mL/min/kg
Cmax (in vivo [3]; [11]): 27300 ng/mL
MRT inf (in vivo [3]; [11]): 7.2 h
Vd (in vivo [3]; [11]): 0.624 L/kg
AUC(0-inf) (in vivo [3]; [12]): 142000 ng·h/mL
AUC (in vivo [3]; [12]): 138000 ng·h/mL
clearance (in vivo [3]; [12]): 1.9 mL/min/kg
Cmax (in vivo [3]; [12]): 46500 ng/mL
MRT inf (in vivo [3]; [12]): 5.48 h
Vd (in vivo [3]; [12]): 0.629 L/kg
AUC(0-inf) (in vivo [3]; [13]): 167000 ng·h/mL
AUC(0-inf) (in vivo [3]; [14]): 188000 ng·h/mL
AUC(0-inf) (in vivo [3]; [15]): 213000 ng·h/mL
AUC (in vivo [3]; [13]): 140000 ng·h/mL
AUC (in vivo [3]; [14]): 154000 ng·h/mL
AUC (in vivo [3]; [15]): 173000 ng·h/mL
clearance (in vivo [3]; [13]): 1.78 mL/min/kg
clearance (in vivo [3]; [14]): 1.63 mL/min/kg
clearance (in vivo [3]; [15]): 1.72 mL/min/kg
Cmax (in vivo [3]; [13]): 31100 ng/mL
Cmax (in vivo [3]; [14]): 32800 ng/mL
Cmax (in vivo [3]; [15]): 32200 ng/mL
MRT inf (in vivo [3]; [13]): 11.8 h
MRT inf (in vivo [3]; [14]): 12.3 h
MRT inf (in vivo [3]; [15]): 12 h
Vd (in vivo [3]; [13]): 1.26 L/kg
Vd (in vivo [3]; [14]): 1.19 L/kg
Vd (in vivo [3]; [15]): 1.14 L/kg
AUC ([4]; male, monkey, plasma, iv): 21900 ng·h/mL
AUC(0-inf) ([4]; male, monkey, plasma, iv): 22100 ng·h/mL
Cmax ([4]; male, monkey, plasma, iv): 5190 ng/mL
MRT ([4]; male, monkey, plasma, iv): 4.71 h
clearance ([4]; male, monkey, plasma, iv): 2.27 mL/min/kg
Vd ([4]; male, monkey, plasma, iv, read-out: Vss): 0.639 L/kg
λz [4]: 0.204 h⁻¹
